Reference: PMC2713365 (International journal for parasitology, 2009)

Key:
[1] = molecular target: T1, AsGAR-1 (Ascaris suum, UniProt C0KJK1); assay: cell-based; conditions: read-out: yeast functional expression, growth reporter, agonist at 10^-4 M
[2] = molecular target: T1, AsGAR-1; assay: yeast functional expression, antagonism of […] ACh by […] compound; assay type: cell-based; conditions: read-out: % of control growth at 10^-4 M
[3] = molecular target: T1, AsGAR-1; assay: as above; assay type: cell-based; conditions: read-out: % inhibition at 10^-4 M

SMILES | fold induction at 100 µM [1] | remaining activity at 100 µM [2] [%] | further results
COC(=O)C1=CCCN(C)C1 [Arec, arecoline] | 10.2 ± 1.6 | – | –
CC(C)NCC(O)COc1cccc2ccccc12 (centres unmarked) [Prop, propranolol] | – | 41.2 ± 8.9 | –
CC(C[N+](C)(C)C)OC(N)=O (centres unmarked) [Beth, bethanechol] | 7.7 ± 0.8 | – | –
CN1CCN2c3ccccc3Cc3ccccc3C2C1 (centres unmarked) [Mian, mianserin] | – | 24 ± 0.1 | –
C[N+](C)(C)CC#CCN1CCCC1=O [Oxo, oxotremorine M] | 8.2 ± 1.7 | – | –
CN1[C@@H]2CC[C@H]1C[C@@H](OC(=O)C(CO)c1ccccc1)C2 (some centres unmarked) [Atr, atropine] | – | – | inhibition at 100 µM [3]: 62.2%
C[N+](C)(C)CCOC(N)=O [Carb, carbachol] | 10.8 ± 1.7 | – | –
O=C(CCCN1CCC2(CC1)C(=O)NCN2c1ccccc1)c1ccc(F)cc1 [Spip, spiperone] | – | 52.8 ± 7.6 | –
